Assays:
[1] = test system: T47D human breast carcinoma cells; assay: Assay to Demonstrate Ability to Increase Breast Cell Proliferation ([3H]-thymidine incorporation); type: cell-based; conditions: at the concentration of the same table line, control level set at 100%
Protocol: This assay is used to measure the sex steroid effects of compounds. The activity of compounds in this assay is an indication of their potential use as replacements for naturally occuring hormones in individuals with sex hormone deficiencies.
T47D human breast carcinoma cells are grown in 96-well plates in phenol-red free nutrient media at 37° C. for 48 hours. Conditioned media is removed and replaced with fresh media containing test compounds dissolved in DMSO (0.1% final concentration) and the cells are incubated for an additional 18-20 hours at 37° C. [^3 H]-thymidine is added to each well and allowed to incorporate into DNA for 4 hours. Unlabeled thymidine is then added to terminate the reaction, and the cultures are then washed, trypsinized and harvested. The amount of [^3 H]-thymidineincorporated into DNA is determined by liquid scintillation. Data for each well are expressed as a percent above control level, which is set at 100%. The concentration at which maximal deviation from control is found and the magnitude of that percent deviation is reported. Table T lists the data for some of the compounds of this invention.

Progestin Receptor = molecular target: T1, Progestin Receptor (Oryctolagus cuniculus, UniProt P06186); assay: Progestin Receptor Binding (competitive binding, 3H-promegestone, rabbit uterus receptor preparation); design: species or system New Zealand rabbits; conditions: 3H-promegestone displacement, 4° C., 18 h
T1 construct: The high speed supernatant fraction was used as the receptor preparation; from tissue; host or cells: uterus of New Zealand rabbits, 200,000×g supernatant (cytosol)
T1 sequence (P06186 1-930): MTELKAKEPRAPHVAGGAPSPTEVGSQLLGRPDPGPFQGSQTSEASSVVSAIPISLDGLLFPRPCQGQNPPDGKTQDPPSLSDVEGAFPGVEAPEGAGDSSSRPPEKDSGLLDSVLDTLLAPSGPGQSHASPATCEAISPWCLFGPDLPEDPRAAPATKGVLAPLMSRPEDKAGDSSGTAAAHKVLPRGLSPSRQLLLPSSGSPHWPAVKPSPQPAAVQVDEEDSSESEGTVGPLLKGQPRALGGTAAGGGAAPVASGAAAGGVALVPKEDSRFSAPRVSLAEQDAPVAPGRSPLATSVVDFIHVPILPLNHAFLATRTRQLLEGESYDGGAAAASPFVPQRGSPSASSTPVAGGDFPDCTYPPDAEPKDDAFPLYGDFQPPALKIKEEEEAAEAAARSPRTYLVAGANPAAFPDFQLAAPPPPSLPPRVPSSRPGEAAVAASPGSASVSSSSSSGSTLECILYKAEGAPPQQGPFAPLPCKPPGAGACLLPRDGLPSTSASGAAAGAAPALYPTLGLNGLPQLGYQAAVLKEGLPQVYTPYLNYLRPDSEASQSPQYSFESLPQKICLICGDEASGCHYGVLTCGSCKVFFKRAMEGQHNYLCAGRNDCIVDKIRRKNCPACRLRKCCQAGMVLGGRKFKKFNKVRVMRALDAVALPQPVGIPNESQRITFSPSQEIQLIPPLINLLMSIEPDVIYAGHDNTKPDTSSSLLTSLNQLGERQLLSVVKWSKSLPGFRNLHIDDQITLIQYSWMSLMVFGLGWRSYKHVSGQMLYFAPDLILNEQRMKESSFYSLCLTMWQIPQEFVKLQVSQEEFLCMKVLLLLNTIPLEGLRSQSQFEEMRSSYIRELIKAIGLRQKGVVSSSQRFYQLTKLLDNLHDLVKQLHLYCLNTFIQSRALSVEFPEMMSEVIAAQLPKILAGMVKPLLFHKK
Protocol: Progestin Receptor Binding
The procedure used was essentially that of J. L. McGuire, C.
Uteri from New Zealand rabbits (1.5 to 2.5 kg) were placed in a cold buffer A (0.01 mol Tris-HCl, pH 8.0, 0.001 mol EDTA, 0.25 mol sucrose). The uteri were minced, washed and homogenized in cold buffer A. The homogenate (2 g wet tissue/mL buffer) was centrifuged at 200,000×g for 1 h at 4° C. The high speed supernatant fraction was used as the receptor preparation.
A competitive binding assay was performed by mixing 3H-promegestone with the receptor preparation and adding a known amount of unlabeled compound. This mixture was incubated at 4° C. for 18 h. The compounds bound to the receptor were separated from those which were free in solution using dextran coated charcoal and the amount of isotope bound to the receptor was determined by scintillation counting. The extent of the compound's interaction with the receptor is measured as the percent reduction in the total isotope bound caused by the unlabeled test compound as compared to the control levels. The receptor screen consists of measuring the reduction in the total isotope bound caused by the unlabeled test compound at […] final concentrations.

[2] = test system: endometrial proliferation; assay: Assay to Determine Effect of Compound on Uterine Proliferation (Clauberg Test); type: in vivo, immature female white rabbits; conditions: 40 mg/kg subcutaneously; scale 0 (no response)-4 (maximum response); estradiol-primed immature rabbits, daily for five days
Protocol: Assay to Determine Effect of Compound on Uterine Proliferation
The procedure used was essentially that of M. K. McPhail, J. Physiology, 83, 145 (1934). Groups of immature female white rabbits (750-950 g) were primed with a daily subcutaneous injection, for 6 days, with 5 micrograms of 17β-estradiol in 0.2 ml of sesame oil. Starting on the 7th day, they received the test compound daily for five days in the appropriate vehicle. The rabbits were sacrificed approximately 24 hours after the last administration, and the uteri were excised, cleaned and weighed. Portions of both uterine horns were fixed in 10% neutral formalin, sectioned at […] and stained with hematoxylin and eosin. Progestational activity was assessed as in the McGinty Test. The evaluation for endometrial proliferation was made according to a McPhail Index. Each slide was graded for each rabbit on a 0 (no response)-4 (maximum response) scale.

| SMILES | % control (magnitude of maximal deviation from control) [1] | IC50 (Progestin Receptor) | McPhail Index [2] |
| --- | --- | --- | --- |
| CCC[C@]12Cc3ccccc3C1=C[C@@H](C)c1ccc(OC)cc1C2 (relative stereo) [Compound 38] | 189% | 25 nM | 4 |
| CCC[C@]12Cc3ccccc3C1=C[C@@H](C)c1ccc(N)cc1C2 (relative stereo) [Compound 85] | 215% | 19 nM | – |
| CCCC12Cc3cc(OC)ccc3CC=C1c1ccccc1C2 (stereo not shown) [Compound 27] | 224% | 27 nM | – |
| COc1ccc2c(c1)CC1(C)Cc3cc(F)ccc3C1=CC2C (stereo not shown) [Compound 30, 2-Fluoro-6,11,11a,12-tetrahydro-9-methoxy-6,11a-dimethyldibenz[a,f]azulene] | 204% | 6 nM | – |
| CCC12Cc3cc(OC)ccc3CC=C1c1ccccc1C2 (stereo not shown) [Compound 43] | 151% | 57 nM | – |
| COc1ccc2c(c1)CC1(C)Cc3cc(F)ccc3C1C(O)C2C (stereo not shown) [Compound 45] | 191% | 115 nM | – |
| CCC12Cc3ccccc3C(C)CC1c1ccccc1C2 (stereo not shown) [Compound 53] | 50% | 57 nM | – |
| CC1CC2c3ccc(F)cc3CC2(C)Cc2cc(Oc3nnnn3-c3ccccc3)ccc21 (stereo not shown) [Compound 63, 6,11a-Dimethyl-2-fluoro-9-(1-phenyl-5-tetrazolyl)-oxy-4b,5,6,11,11a,12-hexahydrodibenz[a,f]azulene] | 94% | 55 nM | – |
| Cc1ccc2c(c1)CC1(C)Cc3ccccc3C1=CC2 (stereo not shown) [Compound 70] | 173% | 42 nM | – |
| COc1ccc2c(c1)CC1(C)Cc3cc(OC)ccc3C1C(O)C2C (stereo not shown) [Compound 78] | 112% | – | – |
| COc1cc2c(cc1[N+](=O)[O-])C(C)C(O[N+](=O)[O-])C1c3ccccc3CC1(C)C2 (stereo not shown) [Compound 81, 5-(6,11a,-Dimethyl-9-methoxy-8-nitro-4b,5,6,11,11a,12-hexahydro)dibenz[a,f]azulenyl nitrate ester] | 56% | 82 nM | – |
| CC(=O)Nc1ccc2c(c1)CC1(C)Cc3ccccc3C1=CC2C (stereo not shown) [Compound 83, 9-Acetamido-6,11,11a,12-tetrahydro-6,11a-dimethyldibenz[a,f]azulene] | – | 1970 nM | – |
| CC1CC2c3ccccc3CC2(C)Cc2cc(F)ccc21 (stereo not shown) [Compound 88, 6,11a-Dimethyl-9-fluoro-4b,5,6,11,11a,12-hexahydrodibenz[a,f]azulene] | 187% | 34 nM | – |
| CC1CC2c3ccccc3CC2(C)Cc2cc(N)ccc21 (stereo not shown) [Compound 89, 9-Amino-6,11a-dimethyl-4b,5,6,11,11a,12-hexahydrodibenz[a,f]azulene] | – | 137 nM | – |
| CC(=O)Nc1cc2c(cc1[N+](=O)[O-])C(C)CC1c3ccccc3CC1(C)C2 (stereo not shown) [Compound 91] | – | 115 nM | – |
| CC(=O)Nc1ccc2c(c1)CC1(C)Cc3ccccc3C1=CC2 (stereo not shown) [Compound 95] | – | 1770 nM | – |
| CC12Cc3ccccc3C1CCc1c(N)cccc1C2 (stereo not shown) [Compound 96] | – | 34 nM | – |
| CC12Cc3ccccc3C1CCc1c(F)cccc1C2 (stereo not shown) [Compound 98] | – | 60 nM | – |
| CC1CC2c3ccccc3CC2(C)Cc2c1cc([N+](=O)[O-])c(O)c2[N+](=O)[O-] (stereo not shown) [Compound 101, 4b,5,6,11,11a,12-Hexahydro-9-hydroxy-6,11a-dimethyl-8,10-dinitrodibenz[a,f]azulene] | – | 621 nM | – |
| COc1cc2c(cc1[N+](=O)[O-])C(C)CC1c3ccccc3CC1(C)C2 (stereo not shown) [Compound 102, 4b,5,6,11,11a,12-Hexahydro-9-methoxy-6,11a-dimethyl-8-nitro-dibenz[a,f]azulene] | – | 1470 nM | – |
| C=C1C=C2c3ccccc3CC2(C)Cc2cc(OC)ccc21 (stereo not shown) [Compound 105, 6,11,11a,12-Tetrahydro-6-methenyl-9-methoxy-11a-methyldibenz[a,f]azulene] | – | 676 nM | – |
| COc1ccc2c(c1)CC1(C)Cc3ccccc3C1=CC2C (stereo not shown) [Compound 106, 6,11,11a,12-Tetrahydro-9-methoxy-6,11a-dimethyldibenz[a,f]-azulene] | – | 105 nM | – |
| COc1ccc2c(c1)CC1(C)Cc3ccccc3C1CC2C (stereo not shown) [Compound 107, 4b,5,6,11,11a,12-Hexahydro-9-methoxy-6,11a-dimethyldibenz-[a,f]azulene] | – | 678 nM | – |
| CC(=O)Oc1cccc2c1CCC1c3ccccc3CC1(C)C2 (stereo not shown) [Compound 108] | – | 29 nM | – |
| CC(=O)Oc1cccc2c1CC=C1c3ccc(F)cc3CC1(C)C2 (stereo not shown) [Compound 113] | 470% | 6 nM | – |
| COc1ccc2c(c1)CC1(C)Cc3cccc(OC(C)=O)c3CC=C21 (stereo not shown) [Compound 117] | 160% | 93 nM | – |
